In BindingDB's records for patent WO2025045746 (695 Avenue de la Résistance, 2025):

target: T1, NAD(+) hydrolase SARM1 [28-724] (UniProt Q6SZW1); assay: SARM1 Inhibitory Activity
T1 construct: 28-724
T1 sequence (Q6SZW1 whole entry): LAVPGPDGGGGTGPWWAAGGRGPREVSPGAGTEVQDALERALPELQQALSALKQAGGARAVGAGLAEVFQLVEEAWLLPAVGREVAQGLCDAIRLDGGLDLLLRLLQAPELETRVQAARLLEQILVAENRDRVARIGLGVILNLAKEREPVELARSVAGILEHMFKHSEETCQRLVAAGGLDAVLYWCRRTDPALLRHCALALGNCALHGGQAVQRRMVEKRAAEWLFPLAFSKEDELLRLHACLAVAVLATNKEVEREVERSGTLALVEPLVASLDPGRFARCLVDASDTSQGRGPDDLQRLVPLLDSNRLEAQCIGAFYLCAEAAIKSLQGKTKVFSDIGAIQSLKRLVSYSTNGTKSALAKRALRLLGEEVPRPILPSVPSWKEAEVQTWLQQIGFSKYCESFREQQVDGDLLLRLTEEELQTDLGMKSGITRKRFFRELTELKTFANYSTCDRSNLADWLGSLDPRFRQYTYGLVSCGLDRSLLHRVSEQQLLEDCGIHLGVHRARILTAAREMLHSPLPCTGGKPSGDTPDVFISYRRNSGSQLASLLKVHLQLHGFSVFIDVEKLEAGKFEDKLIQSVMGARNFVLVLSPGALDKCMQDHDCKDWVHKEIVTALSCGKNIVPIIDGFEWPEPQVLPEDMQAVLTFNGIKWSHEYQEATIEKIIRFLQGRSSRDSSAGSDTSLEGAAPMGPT
Experimental: Assay reagents were prepared in 25mM HEPES pH 7.2, 50mM NaCl, 1mM EDTA and 0.0025% Tween20. […] The peak area of NAD and linear ADPR were measured by a RapidFire High Throughput Mass Spectrometry System (Agilent Technologies, Santa Clara, CA) using an API5000 triple quadrupole mass spectrometer (AB Sciex Framingham, MA). The ratio of linear ADPR to NAD peak area was then plotted against compound concentration to obtain an IC50 as fitted via non-linear regression.

IC50	SMILES
9.54 µM	C[C@@H]1C[C@H](c2ccc(F)cc2)CN1C(=O)c1cc(-c2ccnnc2)n[nH]1 [WO2025045746, Example 25]
0.068 µM	O=C(c1[nH]nc(-c2ccnnc2)c1Cl)N1CC[C@H](c2ccc(F)c(F)c2)C1 [WO2025045746, Example 50]
0.194 µM	O=C(c1cc(-c2ccncc2)n[nH]1)N1CCC(c2ccc(Cl)s2)C1 (configuration not stated) [WO2025045746, Example 9]
1.54 µM	Cc1ccc(C2CCN(C(=O)c3cc(-c4ccnnc4)n[nH]3)C2)s1 (configuration not stated) [WO2025045746, Example 45]
1.28 µM	O=C(c1cc(-c2ccncc2)n[nH]1)N1CCC(c2cccc(Cl)c2)C1 (configuration not stated) [WO2025045746, Example 7]
9.22 µM	O=C(c1cc(-c2ccnnc2)n[nH]1)N1C[C@H](O)[C@H](c2ccc(Cl)cc2)C1 [WO2025045746, Example 22]
3.19 µM	O=C(c1cc(-c2ccncc2)n[nH]1)N1CCC2(CCc3cc(Br)ccc32)C1 (configuration not stated) [WO2025045746, Example 3]
0.183 µM	O=C(c1cc(-c2ccnnc2)n[nH]1)N1CC[C@H](c2ccc(F)c(F)c2)C1 [WO2025045746, Example 42]
1.24 µM	O=C(c1cc(-c2ccnnc2)n[nH]1)N1C[C@H](CO)[C@@H](c2ccc(Cl)cc2)C1 [WO2025045746, Example 61]
0.521 µM	O=C(c1cc(-c2ccncc2)n[nH]1)N1CC(c2ccc(Cl)cc2)C2CCCCC21 (configuration not stated) [WO2025045746, Example 32]
4.5 µM	O=C(c1cc(-c2ccnnc2)n[nH]1)N1C[C@H](c2ccc(Cl)cc2)[C@@H](F)C1 [WO2025045746, Example 76]
3.02 µM	O=C(c1[nH]nc(-c2ccnnc2)c1C1CC1)N1CCC(c2ccc(Cl)cc2)C1 (configuration not stated) [WO2025045746, Example 66]
0.427 µM	Cc1c(-c2ccnnc2)n[nH]c1C(=O)N1CCC(c2ccc(Cl)cc2)C1 (configuration not stated) [WO2025045746, Example 5]
0.072 µM	O=C(c1cc(-c2ccnnc2)n[nH]1)N1C[C@@H](CO)[C@H](c2ccc(Cl)cc2)C1 [WO2025045746, Example 60]
2.17 µM	N#Cc1ccc(C2CCN(C(=O)c3cc(-c4ccnnc4)n[nH]3)C2)cc1 (configuration not stated) [WO2025045746, Example 16]
0.563 µM	N#C[C@@H]1CN(C(=O)c2cc(-c3ccnnc3)n[nH]2)C[C@H]1c1ccc(Cl)cc1 [WO2025045746, Example 72]
2.83 µM	O=C(c1cc(-c2ccncc2)n[nH]1)N1CC[C@@H](c2ccc(Cl)nc2)C1 [WO2025045746, Example 29]
6.18 µM	O=C(c1cc(-c2ccnnc2)n[nH]1)N1CCC(c2cccc(OC(F)(F)F)c2)C1 (configuration not stated) [WO2025045746, Example 18]
0.492 µM	O=C(c1[nH]nc(-c2ccnnc2)c1F)N1CC[C@@H](c2ccc(Cl)cc2)C1 [WO2025045746, Example 64]
0.095 µM	O=C(c1[nH]nc(-c2ccnnc2)c1F)N1CC[C@H](c2ccc(Cl)cc2)C1 [WO2025045746, Example 63]
5.92 µM	O=C(c1cc(-c2ccnnc2)n[nH]1)N1C[C@H](O)[C@H](c2ccc(Cl)cc2)C1 [WO2025045746, Example 34]

IC50	SMILES
0.461 µM	O=C(c1cc(-c2ccnnc2)n[nH]1)N1CCC(c2ccc(Br)cc2)C1 (configuration not stated) [WO2025045746, Example 51]
2.21 µM	Cc1cnccc1-c1cc(C(=O)N2CC[C@H](c3ccc(Cl)cc3)C2)[nH]n1 [WO2025045746, Example 57]
0.624 µM	O=C(c1cc(-c2ccncc2)n[nH]1)N1C[C@@H](O)[C@H](c2ccc(Cl)cc2)C1 [WO2025045746, Example 13]
1.78 µM	O=C(c1[nH]nc(-c2ccnnc2)c1Br)N1CC[C@@H](c2ccc(Cl)cc2)C1 [WO2025045746, Example 59]
8.3 µM	O=C(c1cc(-c2ccnnc2)n[nH]1)N1CCC(c2ncc(Cl)s2)C1 (configuration not stated) [WO2025045746, Example 38]
0.051 µM	C[C@@H]1CN(C(=O)c2cc(-c3ccnnc3)n[nH]2)C[C@H]1c1ccc(Cl)cc1 [WO2025045746, Example 65]
0.351 µM	O=C(c1cc(-c2ccnnc2)n[nH]1)N1C[C@@H](O)[C@H](c2ccc(Cl)cc2)C1 [WO2025045746, Example 21]
9.48 µM	CC1CC(c2ccccc2)C(C)N1C(=O)c1cc(-c2ccnnc2)n[nH]1 (configuration not stated) [WO2025045746, Example 24]
2.17 µM	Cc1sc(C2CCN(C(=O)c3cc(-c4ccnnc4)n[nH]3)C2)cc1Br (configuration not stated) [WO2025045746, Example 55]
0.34 µM	O=C(c1[nH]nc(-c2ccnnc2)c1Br)N1CC[C@H](c2ccc(Cl)cc2)C1 [WO2025045746, Example 58]
0.098 µM	O=C(c1cc(-c2ccnnc2)n[nH]1)N1CCC(c2ccc(Cl)s2)C1 (configuration not stated) [WO2025045746, Example 10]
3.74 µM	O=C(c1cc(-c2ccnnc2)n[nH]1)N1CCC(F)(c2cc(F)cc(F)c2)C1 (configuration not stated) [WO2025045746, Example 15]
3.05 µM	COc1cnccc1-c1cc(C(=O)N2CCC(c3ccc(Cl)cc3)C2)[nH]n1 (configuration not stated) [WO2025045746, Example 79]
7.39 µM	CC1(C)CC(c2ccccc2)CN1C(=O)c1cc(-c2ccncc2)n[nH]1 (configuration not stated) [WO2025045746, Example 11]
7.41 µM	Cc1csc(C2CCN(C(=O)c3cc(-c4ccnnc4)n[nH]3)C2)c1 (configuration not stated) [WO2025045746, Example 48]
0.469 µM	O=C(c1cc(-c2ccnnc2)n[nH]1)N1CCC(c2ccc(Cl)nc2)C1 (configuration not stated) [WO2025045746, Example 19]
0.191 µM	O=C(c1cc(-c2ccnnc2)n[nH]1)N1CCC(c2ccc(Cl)cc2)C1 (configuration not stated) [WO2025045746, Example 4]
0.625 µM	O=C(c1cc(-c2ccncc2)n[nH]1)N1CC[C@@H](c2ccc(Cl)cc2)C1 [WO2025045746, Example 27]
0.196 µM	C[C@@H](O)[C@@H]1CN(C(=O)c2cc(-c3ccnnc3)n[nH]2)C[C@H]1c1ccc(Cl)cc1 [WO2025045746, Example 68]
2.27 µM	O=C(c1cc(-c2ccnnc2)n[nH]1)N1CCC(F)(c2ccc(F)c(F)c2)C1 (configuration not stated) [WO2025045746, Example 23]
8.13 µM	O=C(c1cc(-c2ccnnc2)n[nH]1)N1CCC(c2cc3ccccc3s2)C1 (configuration not stated) [WO2025045746, Example 54]

IC50	SMILES
0.057 µM	O=C(c1cc(-c2ccnnc2)n[nH]1)N1CC[C@@H](c2ccc(F)c(F)c2)C1 [WO2025045746, Example 41]
1.36 µM	C[C@@H]1CN(C(=O)c2cc(-c3ccnnc3)n[nH]2)C[C@H]1c1ccc(Br)cc1 [WO2025045746, Example 52]
0.214 µM	O=C(c1cc(-c2ccnnc2)n[nH]1)N1CC[C@H](c2cc(Cl)cs2)C1 [WO2025045746, Example 70]
0.142 µM	O=C(c1[nH]nc(-c2ccnnc2)c1Cl)N1CCC(c2ccc(F)c(F)c2)C1 (configuration not stated) [WO2025045746, Example 47]
0.379 µM	O=C(c1[nH]nc(-c2ccnnc2)c1Cl)N1CC[C@@H](c2ccc(F)c(F)c2)C1 [WO2025045746, Example 49]
0.105 µM	O=C(c1cc(-c2ccnnc2)n[nH]1)N1CCC(c2ccc(F)c(F)c2)C1 (configuration not stated) [WO2025045746, Example 17]
0.03 µM	N#C[C@H]1CN(C(=O)c2cc(-c3ccnnc3)n[nH]2)C[C@@H]1c1ccc(Cl)cc1 [WO2025045746, Example 73]
0.073 µM	O=C(c1cc(-c2ccnnc2)n[nH]1)N1CCC(c2ccc(Cl)c(F)c2)C1 (configuration not stated) [WO2025045746, Example 39]
0.084 µM	C[C@H]1CN(C(=O)c2cc(-c3ccnnc3)n[nH]2)C[C@@H]1c1ccc(Br)cc1 [WO2025045746, Example 53]
1.78 µM	O=C(c1cc(-c2ccnnc2)n[nH]1)N1CCC(c2cnc(Cl)s2)C1 (configuration not stated) [WO2025045746, Example 37]
0.114 µM	O=C(c1cc(-c2ccnnc2)n[nH]1)N1CCC(c2ccc(Br)s2)C1 (configuration not stated) [WO2025045746, Example 44]
3.04 µM	O=C(c1cc(-c2ccncc2)n[nH]1)N1CCC(c2ccccc2Cl)C1 (configuration not stated) [WO2025045746, Example 6]
0.194 µM	O=C(c1cc(-c2ccncc2)n[nH]1)N1CC[C@H](c2ccc(Cl)cc2)C1 [WO2025045746, Example 26]
8.69 µM	CC1CC(c2ccc(Cl)cc2)CN1C(=O)c1cc(-c2ccnnc2)n[nH]1 (configuration not stated) [WO2025045746, Example 43]
4.51 µM	O=C(c1cc(-c2ccncc2)n[nH]1)N1CCC(c2ccccc2)C1 (configuration not stated) [WO2025045746, Example 2]
0.387 µM	O=C(c1cc(-c2ccncc2)n[nH]1)N1CCC(c2ccc(Cl)cc2)C1 (configuration not stated) [WO2025045746, Example 1]
0.698 µM	COc1c(-c2ccnnc2)n[nH]c1C(=O)N1CCC(c2ccc(Cl)cc2)C1 (configuration not stated) [WO2025045746, Example 35]
0.746 µM	N#Cc1ccc(C2CCN(C(=O)c3cc(-c4ccnnc4)n[nH]3)C2)s1 (configuration not stated) [WO2025045746, Example 40]
9.66 µM	O=C(c1cc(-c2ccnnc2)n[nH]1)N1CCC(c2ccc(Cl)cn2)C1 (configuration not stated) [WO2025045746, Example 20]
0.749 µM	O=C(c1cc(-c2ccnnc2)n[nH]1)N1CC[C@@H](c2cc(Cl)cs2)C1 [WO2025045746, Example 69]
